The record followed here is patent EP3227262B1, “SULFIDE ALKYL AND PYRIDYL REVERSE SULFONAMIDE COMPOUNDS FOR HBV TREATMENT” (Novira Therapeutics Inc., priority 2014, dated 2016).

SMILES strings stand for the structures. pEC50: −log10 of the molar value.

This assay relates to HBV. Put plainly: Inhibition of HBV replication dot-blot assay in HBV-producing hepatoma cell line. Type of assay: cell-based. The settings on record: Hepatitis B virus, 144 h; activity in Dot-Blot assay; HepG2-2.2.15 cells; reduction in HBV DNA levels, six days. How it is done: Compounds active in the HBV assembly assay are tested for their activity and toxicity in cellular assay. In the first anti-viral assay, the ability of compounds to inhibit HBV replication in an HBV-producing hepatoma cell line using the dot-blot method is evaluated.
(§1) Briefly, confluent monolayers of HepG2-2.2.15 cells are incubated with complete medium containing various concentrations of a test compound. Three days later, the culture medium is replaced with fresh medium containing the appropriately diluted test compound. Six days following the initial administration of the test compound, the cell culture supernatant is collected, and cell lysis is performed. The samples are applied onto Nylos membranes and DNA is immobilized to the membrane by UV cross-linking. After pre-hybridization, the HBV probe is added and the hybridization is performed overnight. The membranes are exposed to the KODAK films; antiviral activity is calculated from the reduction in HBV DNA levels (EC50). The EC50 for antiviral activity is calculated from the dose response curves of active compounds. Assay performance over time is monitored by the use of the standard positive control compounds ETV, BAY 41-4109, and HAP-1.
Selected compounds are tested for their activity and toxicity in cellular assay. In the first anti-viral assay, the ability of compounds to inhibit HBV replication in an HBV-producing hepatoma cell line using the dot-blot method is evaluated.
as §1, with “Confluent monolayers” for “Briefly, confluent monolayers”, “lysis was” for “lysis is”
Usually pEC50 stands for the negative decadic logarithm of the EC50, by convention in mol/L. Read a high pEC50 as a low EC50. For the molecule `O=C(Nc1ccc(F)c(Cl)c1)c1cc(F)nc(NS(=O)(=O)C2CC2)c1` [Compound 137, N-(3-Chloro-4-fluorophenyl)-2-(cyclopropanesulfonamido)-6-fluoroisonicotinamide], the pEC50 was > 5.00.

In the case of `O=C(Nc1ccc(F)c(Cl)c1)c1cc(F)nc(NS(=O)(=O)c2ccccc2)c1` [Compound 138, N-(3-Chloro-4-fluorophenyl)-2-fluoro-6-(phenylsulfonamido)isonicotinamide], the pEC50 was > 5.00.

As to `O=C(Nc1ccc(F)c(Cl)c1)c1ccnc(NS(=O)(=O)Cc2ccccc2)c1` [Compound 139, N-(3-Chloro-4-fluorophenyl)-2-(phenylmethylsulfonamido)isonicotinamide], the pEC50 was > 5.00.

Turning to `O=C(Nc1ccc(F)c(Cl)c1)c1ccnc(NS(=O)(=O)c2cccs2)c1` [Compound 141, N-(3-Chloro-4-nuorophenyl)-2-(thiophene-2-sulfonamido)isonicotinamide], the negative-log EC50 (pEC50) was > 5.00.

Regarding `O=C(Nc1ccc(F)c(Cl)c1)c1cc(NS(=O)(=O)C2CC2)ncc1F` [Compound 144, N-(3-Chloro-4-fluorophenyl)-2-(cyclopropanesulfonamido)-5-fluoroisonicotinamide], the pEC50 was > 5.00.

`O=C(Nc1ccc(F)c(Cl)c1)c1cc(NS(=O)(=O)C2CC2)ncc1Cl` [Compound 149, 5-Chloro-N-(3-chloro-4-fluorophenyl)-2-(cyclopropanesulfonamido)isonicotinamide]: the pEC50 was > 5.00.

For `O=C(Nc1ccc(F)c(Cl)c1)c1ccnc(NS(=O)(=O)CC2CCCC2)c1` [Compound 150, N-(3-Chloro-4-fluorophenyl)-2-(cyclopentylmethylsulfonamido)isonicotinamide], the pEC50 was > 5.00.

Turning to `Cc1ccc(CS(=O)(=O)Nc2cc(C(=O)Nc3ccc(F)c(Cl)c3)ccn2)cc1` [Compound 152, N-(3-Chloro-4-fluorophenyl)-2-(p-tolylmethylsulfonamido)isonicotinamide], the negative-log EC50 (pEC50) is > 5.00.

Consider `CC(C)(C)S(=O)(=O)Nc1cc(C(=O)Nc2ccc(F)c(Cl)c2)ccn1` [Compound 154, N-(3-Chloro-4-fluorophenyl)-2-(1,1-dimethylethylsulfonamido)isonicotinamide], for which the pEC50 was > 5.00.

As to `O=C(Nc1ccc(F)c(Cl)c1)c1ccnc(NS(=O)(=O)CC2(O)CCC2)c1` [Compound 155, N-(3-Chloro-4-fluorophenyl)-2-((1-hydroxycyclobutyl)methylsulfonamido) isonicotinamide], the pEC50 was > 5.00.

For the molecule `CC(C)(O)CS(=O)(=O)Nc1cc(C(=O)Nc2ccc(F)c(Cl)c2)ccn1` [Compound 156, N-(3-Chloro-4-fluorophenyl)-2-(2-hydroxy-2-methylpropylsulfonamido) isonicotinamide], the negative logarithm of the EC50 (pEC50) was > 5.00.

As for `CC(C)S(=O)(=O)Nc1cc(C(=O)Nc2ccc(F)c(Cl)c2)ccn1` [Compound 163, N-(3-Chloro-4-fluorophenyl)-2-(1-methylethylsulfonamido)isonicotinamide], the pEC50 is > 5.00.

For `CC(C)(C)CS(=O)(=O)Nc1cc(C(=O)Nc2ccc(F)c(Cl)c2)ccn1` [Compound 164, N-(3-Chloro-4-fluorophenyl)-2-(2,2-dimethylpropylsulfonamido)isonicotinamide], the negative logarithm of the EC50 (pEC50) is > 5.00.

As to `CC(C)S(=O)(=O)Nc1cc(C(=O)Nc2ccc(F)c(F)c2)ccn1` [Compound 165, N-(3,4-Difluorophenyl)-2-(1-methylethylsulfonamido)isonicotinamide], the pEC50 was > 5.00.

As for `COc1ccc(CCS(=O)(=O)Nc2cc(C(=O)Nc3ccc(F)c(Cl)c3)ccn2)cc1` [Compound 173, N-(3-Chloro-4-fluorophenyl)-2-(2-(4-methoxyphenyl)ethylsulfonamido)isonicotinamide], the pEC50 was > 5.00.

Consider `Cc1cc(NC(=O)c2ccc(F)c(NS(=O)(=O)c3ccn(C)n3)c2)ccc1F` [Compound 197, 4-fluoro-N-(4-fluoro-3-methylphenyl)-3-(1-methyl-1H-pyrazole-3-sulfonamido)benzamide], for which the pEC50 is > 5.00.
